In brackets after ≈: the same amount, converted by molar mass. One block for each molecule: values may come before it.
Key:
Experiment in all cases: ≥ marks a high value that may be exact or a test limit, other limits are often not marked, values filed in µg/mL are converted to µM
[1] = test system: Trichosporon beigelii KCTC 7707
[2] = test system: Staphylococcus aureus KCTC 1621
[3] = test system: Bacillus subtilis KCTC 1918
[4] = test system: Proteus vulgaris KCTC 2433
[5] = test system: Candida albicans TIMM 1768
[6] = test system: Salmonella typhimurium KCTC 1926
[7] = test system: Saccharomyces cerevisiae KCTC 7296
Staphylococcus aureus 1 = test system: Staphylococcus aureus 1
Escherichia coli O157 = test system: Escherichia coli O157
Enterococcus faecium = test system: Enterococcus faecium
Staphylococcus aureus = test system: Staphylococcus aureus
Pseudomonas aeruginosa = test system: Pseudomonas aeruginosa
[8] = test system: Candida parapsilosis ATCC 22019
[9] = test system: Candida albicans ATCC 90028
Staphylococcus aureus 4 = test system: Staphylococcus aureus 4
Pseudomonas aeruginosa 1 = test system: Pseudomonas aeruginosa 1
[10] = test system: Malassezia furfur KCTC 7744
[11] = test system: Batrachochytrium dendrobatidis JEL-197
[12] = test system: Staphylococcus aureus ATCC 25923
[13] = test system: Escherichia coli ATCC 25726
[14] = test system: Bacillus subtilis ATCC 6633
[15] = test system: Candida albicans ATCC 20032
[16] = test system: Escherichia coli ATCC 25922
[17] = test system: Staphylococcus aureus ATCC 12600
[18] = test system: Streptococcus salivarius ATCC 13419
[19] = test system: Staphylococcus epidermidis ATCC 14990
Bacillus megaterium Bm11 = test system: Bacillus megaterium Bm11
[20] = test system: Acinetobacter baumannii ATCC 19606
Escherichia coli D21 = test system: Escherichia coli D21
Staphylococcus capitis 1 = test system: Staphylococcus capitis 1
[21] = test system: Yersinia pseudotuberculosis YPIII
[22] = test system: Pseudomonas aeruginosa ATCC 27853
[23] = test system: Staphylococcus aureus Cowan 1
Acinetobacter junii RT-4 = test system: Acinetobacter junii RT-4
[24] = test system: Candida albicans ATCC 10231
[25] = test system: Streptococcus pyogenes ATCC 21547
[26] = test system: Enterococcus faecalis ATCC 29212
Saccharomyces cerevisiae = test system: Saccharomyces cerevisiae
[27] = test system: Pseudomonas aeruginosa ATCC 15692
[28] = test system: Staphylococcus epidermidis ATCC 12228
[29] = test system: Pseudomonas syringae pv. tabaci 1918NCPPB
[30] = test system: Schizosaccharomyces pombe
Escherichia coli = test system: Escherichia coli
Enterobacter cloacae = test system: Enterobacter cloacae
Bacillus subtilis = test system: Bacillus subtilis
[31] = test system: Salmonella enterica subsp. enterica serovar Typhi

- MIC [1]: ≥ 35.4 µM
- MIC [2]: 0.78 µM (≈ 1.7 µg/mL)
- MIC [3]: 0.78 µM (≈ 1.7 µg/mL)
- MIC [4]: 0.78 µM (≈ 1.7 µg/mL)
- MIC [5]: ≥ 50 µM
- MIC [6]: 0.39 µM (≈ 0.852 µg/mL)
- MIC [7]: 17.7 µM (≈ 38.6 µg/mL)
Structure (SMILES): CC[C@H](C)[C@H](NC(=O)CNC(=O)[C@H](CC(C)C)NC(=O)[C@H](CCCN=C(N)N)NC(=O)[C@H](CCCCN)NC(=O)[C@H](Cc1ccccc1)NC(=O)[C@@H](NC(=O)[C@H](CCCCN)NC(=O)[C@H](CCCCN)NC(=O)[C@H](C)N)C(C)C)C(=O)NCC(=O)N[C@@H](C)C(=O)N[C@H](C(=O)N[C@@H](CC(C)C)C(=O)N[C@@H](CCCCN)C(=O)N[C@H](C(=O)N[C@@H](CC(C)C)C(=O)N[C@H](C(=O)N[C@@H](Cc1c[nH]c2ccccc12)C(=O)NCC(=O)O)[C@@H](C)O)C(C)C)C(C)C [AKKVFKRLGIGAVLKVLTWG]

- MIC (Staphylococcus aureus 1): 5 µM (≈ 5.91 µg/mL)
- MIC [1]: 28.3 µM (≈ 33.4 µg/mL)
- MIC (Escherichia coli O157): 10 µM (≈ 11.8 µg/mL)
- MIC (Enterococcus faecium): 10 µM (≈ 11.8 µg/mL)
- MIC (Staphylococcus aureus): 20 µM (≈ 23.7 µg/mL)
- MIC (Pseudomonas aeruginosa): 5 µM (≈ 5.91 µg/mL)
- MIC [8]: 10 µM (≈ 11.8 µg/mL)
- MIC [9]: 10 µM (≈ 11.8 µg/mL)
- MIC (Staphylococcus aureus 4): 10 µM (≈ 11.8 µg/mL)
- MIC (Pseudomonas aeruginosa 1): 10 µM (≈ 11.8 µg/mL)
- MIC [10]: 20 µM (≈ 23.7 µg/mL)
Structure (SMILES): CC[C@H](C)[C@H](NC(=O)[C@H](CC(C)C)NC(=O)[C@H](CCCN=C(N)N)NC(=O)[C@@H](NC(=O)[C@H](C)NC(=O)[C@H](CCCCN)NC(=O)[C@H](CC(C)C)NC(=O)[C@H](CC(C)C)NC(=O)[C@@H](N)CCC(=O)O)C(C)C)C(=O)N[C@@H](CCCCN)C(=O)O [ELLKAVRLIK]

- MIC [11]: ≥ 100 µM
- MIC [12]: 40 µM (≈ 51.4 µg/mL)
- MIC [13]: ≥ 160 µM
Structure (SMILES): CSCC[C@H](NC(=O)[C@H](C)NC(=O)[C@H](CC(C)C)NC(=O)[C@@H]1CCCN1C(=O)[C@H](CC(C)C)NC(=O)[C@@H](N)Cc1ccccc1)C(=O)N[C@@H](C)C(=O)N[C@@H](CC(C)C)C(=O)NCC(=O)N[C@@H](CCCCN)C(=O)N[C@@H](CC(C)C)C(=O)N[C@@H](CC(C)C)C(N)=O [FLPLAMALGKLL]

- MIC [14]: 28.1 µM (≈ 75 µg/mL)
- MIC [15]: ≥ 37.4 µM
- MIC [16]: 7.03 µM (≈ 18.8 µg/mL)
- MIC [12]: 3.52 µM (≈ 9.4 µg/mL)
Structure (SMILES): CC[C@H](C)[C@H](NC(=O)CN)C(=O)NCC(=O)N[C@H](C(=O)N[C@@H](CCCCN)C(=O)N[C@H](C(=O)N[C@@H](CC(C)C)C(=O)NCC(=O)NCC(=O)N[C@H](C(=O)N[C@@H](CCCCN)C(=O)N[C@@H](C)C(=O)N[C@@H](C)C(=O)N[C@@H](CC(C)C)C(=O)N[C@@H](CCCCN)C(=O)NCC(=O)N[C@@H](C)C(=O)N[C@@H](CC(C)C)C(=O)N[C@@H](CCCCN)C(=O)N[C@@H](CCC(=O)O)C(=O)N[C@@H](CC(C)C)C(=O)N[C@@H](C)C(=O)N[C@@H](CO)C(=O)N[C@H](C(=O)N[C@@H](Cc1ccc(O)cc1)C(=O)N[C@H](C(=O)N[C@@H](CC(N)=O)C(N)=O)C(C)C)[C@@H](C)O)C(C)C)[C@@H](C)CC)[C@@H](C)O [GIGTKILGGVKAALKGALKELASTYVN]

- MIC [17]: ≥ 80 µM
- MIC [18]: 5.9 µM (≈ 20.1 µg/mL)
- MIC [16]: 3.4 µM (≈ 11.6 µg/mL)
- MIC [19]: ≥ 80 µM
Structure (SMILES): CC(C)C[C@@H]1NC(=O)[C@H](C(C)C)NC(=O)[C@H](Cc2ccccc2)NC(=O)[C@@H]2CSSC[C@@H]3NC(=O)[C@H](Cc4ccc(O)cc4)NC(=O)[C@@H]4CSSC[C@H](NC(=O)[C@H](CCCN=C(N)N)NC(=O)[C@H]([C@@H](C)O)NC(=O)CNC(=O)[C@H](CC(N)=O)NC(=O)[C@H](CCCN=C(N)N)NC(=O)[C@H](Cc5ccc(O)cc5)NC(=O)[C@H](CSSC[C@H](NC(=O)[C@@H]5CCCN5C1=O)C(=O)N[C@@H](Cc1c[nH]c5ccccc15)C(=O)N[C@@H](CO)C(=O)N[C@@H](C)C(=O)N[C@@H](CCCCN)C(=O)N[C@@H](Cc1ccccc1)C(=O)NCC(=O)N4)NC(=O)[C@H](Cc1ccccc1)NC(=O)CNC(=O)[C@H](CCCCN)NC(=O)[C@H](CCC(N)=O)NC3=O)C(=O)NCC(=O)N[C@@H](CCC(=O)O)C(=O)N[C@@H]([C@@H](C)O)C(=O)N2 [GTRCGETCFVLPCWSAKFGCYCQKGFCYRN]

- MIC (Bacillus megaterium Bm11): 3 µM (≈ 4.88 µg/mL)
- MIC [20]: 6 µM (≈ 9.75 µg/mL)
- MIC (Escherichia coli D21): ≥ 48 µM
- MIC (Staphylococcus capitis 1): 6 µM (≈ 9.75 µg/mL)
- MIC [21]: 6 µM (≈ 9.75 µg/mL)
- MIC [22]: > 48 µM
- MIC [23]: 6 µM (≈ 9.75 µg/mL)
- MIC (Acinetobacter junii RT-4): 6 µM (≈ 9.75 µg/mL)
- MIC [24]: 12 µM (≈ 19.5 µg/mL)
- MIC [25]: 6 µM (≈ 9.75 µg/mL)
- MIC [16]: > 48 µM
- MIC [12]: 6 µM (≈ 9.75 µg/mL)
- MIC [26]: 12 µM (≈ 19.5 µg/mL)
- MIC (Saccharomyces cerevisiae): 12 µM (≈ 19.5 µg/mL)
- MIC [27]: ≥ 48 µM
- MIC [28]: 3 µM (≈ 4.88 µg/mL)
- MIC [29]: 12 µM (≈ 19.5 µg/mL)
- MIC [30]: 6 µM (≈ 9.75 µg/mL)
Structure (SMILES): CC(C)C[C@H](NC(=O)[C@H](Cc1c[nH]c2ccccc12)NC(=O)[C@H](CCCN=C(N)N)NC(=O)CNC(=O)[C@H](CC(C)C)NC(=O)[C@H](CC(C)C)NC(=O)[C@H](CCCCN)NC(=O)[C@H](CO)NC(=O)[C@H](CC(C)C)NC(=O)[C@H](Cc1c[nH]c2ccccc12)NC(=O)[C@H](CCC(N)=O)NC(=O)[C@H](CC(C)C)NC(=O)[C@@H](N)CC(C)C)C(N)=O [LLQWLSKLLGRWL]

- MIC (Escherichia coli): 15.6 µM (≈ 32 µg/mL)
- MIC (Enterobacter cloacae): 15.6 µM (≈ 32 µg/mL)
- MIC [22]: 31.2 µM (≈ 64 µg/mL)
- MIC (Staphylococcus aureus): 31.2 µM (≈ 64 µg/mL)
- MIC (Pseudomonas aeruginosa): 7.79 µM (≈ 16 µg/mL)
- MIC [16]: 7.79 µM (≈ 16 µg/mL)
- MIC [9]: ≥ 62.4 µM
- MIC [12]: 1.95 µM (≈ 4 µg/mL)
- MIC (Bacillus subtilis): 31.2 µM (≈ 64 µg/mL)
- MIC [31]: 1.95 µM (≈ 4 µg/mL)
Structure (SMILES): CC(C)C[C@H](NC(=O)[C@H](CCCCN)NC(=O)[C@H](CCCN=C(N)N)NC(=O)[C@H](Cc1ccccc1)NC(=O)[C@H](Cc1ccccc1)NC(=O)[C@H](CCCCN)NC(=O)[C@H](CCCCN)NC(=O)[C@H](Cc1ccccc1)NC(=O)[C@H](CCCN=C(N)N)NC(=O)[C@H](CCCCN)NC(=O)[C@@H](NC(=O)[C@@H](N)CC(C)C)C(C)C)C(=O)N[C@@H](CCCCN)C(=O)N[C@@H](CCCCN)C(=O)N[C@@H](CO)C(=O)N[C@H](C(N)=O)C(C)C [LVKRFKKFFRKLKKSV]
